# Measured values: article PMC5218480 (PLoS ONE, 2017)
# Test system: MV-4-11 cells
# Assay: Gene expression microarray analysis (Affymetrix PrimeView) and GSEA
# Assay type: cell-based, human
# Design: RFU PODN (11730768_x_at) / Fold change /veh PODN (11730768_x_at) / RFU LINC00158 (11744669_a_at) / Fold change /veh LINC00158 (11744669_a_at) / RFU DUSP10 (11751237_a_at) / Fold change /veh DUSP10 (11751237_a_at) / RFU ID3 (11757404_x_at) / Fold change /veh ID3 (11757404_x_at) / RFU PLEKHG5 (11737974_s_at) / Fold change /veh PLEKHG5 (11737974_s_at) / RFU LRRC4B (11730491_at) / Fold change /veh LRRC4B (11730491_at) / RFU GIMAP4 (11747438_a_at) / Fold change /veh GIMAP4 (11747438_a_at) / RFU KRT8 (11758183_x_at) / Fold change /veh KRT8 (11758183_x_at) / RFU CNN1 (11734310_a_at) / Fold change /veh CNN1 (11734310_a_at) / RFU VPS37D (11726825_at) / Fold change /veh VPS37D (11726825_at) / RFU C10orf10 (11716522_x_at) / Fold change /veh C10orf10 (11716522_x_at) / RFU KIR2DL2 /// KIR2DL4 /// KIR2DL5A /// KIR2DL5B /// KIR2DS1 /// KIR2DS2 /// KIR2DS3 /// KIR2DS4 /// KIR3DL3 /// KIR3DL3 /// KIR3DS1 (11738374_at) / Fold change /veh KIR2DL2 /// KIR2DL4 /// KIR2DL5A /// KIR2DL5B /// KIR2DS1 /// KIR2DS2 /// KIR2DS3 /// KIR2DS4 /// KIR3DL3 /// KIR3DL3 /// KIR3DS1 (11738374_at) / RFU C1QL1 (11718748_at) / Fold change /veh C1QL1 (11718748_at) / RFU TMPRSS4 (11747572_a_at) / Fold change /veh TMPRSS4 (11747572_a_at) / RFU HAMP (11756126_x_at) / Fold change /veh HAMP (11756126_x_at) / RFU RNFT2 (11725882_a_at) / Fold change /veh RNFT2 (11725882_a_at) / RFU NR4A2 (11747474_a_at) / Fold change /veh NR4A2 (11747474_a_at) / RFU ABCC12 (11746883_a_at) / Fold change /veh ABCC12 (11746883_a_at) / RFU TMEM136 (11760407_x_at) / Fold change /veh TMEM136 (11760407_x_at) / RFU CLDN22 /// WWC2 (11732394_at) / Fold change /veh CLDN22 /// WWC2 (11732394_at) / RFU HLA-DPB1 (11760878_x_at) / Fold change /veh HLA-DPB1 (11760878_x_at) / RFU SPINT1 (11716480_a_at) / Fold change /veh SPINT1 (11716480_a_at) / RFU GAP43 (11754022_s_at) / Fold change /veh GAP43 (11754022_s_at) / RFU A4GNT (11735810_at) / Fold change /veh A4GNT (11735810_at) / RFU PRB3 (11715151_x_at) / Fold change /veh PRB3 (11715151_x_at) / RFU TUBB4B (11761932_at) / Fold change /veh TUBB4B (11761932_at) / RFU CAPN14 (11732068_a_at) / Fold change /veh CAPN14 (11732068_a_at) / RFU TMCC2 (11721928_a_at) / Fold change /veh TMCC2 (11721928_a_at) / RFU IRGQ (11745062_a_at) / Fold change /veh IRGQ (11745062_a_at) / RFU FAM174B (11720279_a_at) / Fold change /veh FAM174B (11720279_a_at) / RFU TMPRSS4 (11748680_a_at) / Fold change /veh TMPRSS4 (11748680_a_at) / RFU FAM212B (11763350_a_at) / Fold change /veh FAM212B (11763350_a_at) / RFU PLEKHG5 (11743358_a_at) / Fold change /veh PLEKHG5 (11743358_a_at) / RFU ZSCAN30 (11745921_a_at) / Fold change /veh ZSCAN30 (11745921_a_at) / RFU CMKLR1 (11741424_a_at) / Fold change /veh CMKLR1 (11741424_a_at) / RFU LOC101060620 /// MAPK8IP1 (11723275_at) / Fold change /veh LOC101060620 /// MAPK8IP1 (11723275_at) / RFU SPTSSB (11747773_x_at) / Fold change /veh SPTSSB (11747773_x_at) / RFU PRSS12 (11739890_at) / Fold change /veh PRSS12 (11739890_at) / RFU BIN1 (11741810_x_at) / Fold change /veh BIN1 (11741810_x_at) / RFU WNT11 (11732464_a_at) / Fold change /veh WNT11 (11732464_a_at) / RFU C10orf10 (11716521_a_at) / Fold change /veh C10orf10 (11716521_a_at) / RFU C5orf56 (11738089_at) / Fold change /veh C5orf56 (11738089_at) / RFU CYB561 (11721691_x_at) / Fold change /veh CYB561 (11721691_x_at) / RFU ANKRD19P (11752326_a_at) / Fold change /veh ANKRD19P (11752326_a_at) / RFU OR2T12 /// OR2T33 /// OR2T8 (11738714_s_at) / Fold change /veh OR2T12 /// OR2T33 /// OR2T8 (11738714_s_at) / RFU VCAN (11748164_a_at) / Fold change /veh VCAN (11748164_a_at) / RFU JSRP1 (11732532_at) / Fold change /veh JSRP1 (11732532_at) / RFU KRTAP10-11 (11738290_x_at) / Fold change /veh KRTAP10-11 (11738290_x_at) / RFU MYO3A (11730013_a_at) / Fold change /veh MYO3A (11730013_a_at) / RFU EBF3 (11725865_a_at) / Fold change /veh EBF3 (11725865_a_at) / RFU CAMK2N1 (11719241_x_at) / Fold change /veh CAMK2N1 (11719241_x_at) / RFU C5orf56 (11738088_a_at) / Fold change /veh C5orf56 (11738088_a_at) / RFU OLFML3 (11715873_a_at) / Fold change /veh OLFML3 (11715873_a_at) / RFU LOC100653217 /// NTM (11731650_a_at) / Fold change /veh LOC100653217 /// NTM (11731650_a_at) / RFU MAPK11 (11762145_a_at) / Fold change /veh MAPK11 (11762145_a_at) / RFU FIZ1 (11724087_x_at) / Fold change /veh FIZ1 (11724087_x_at) / RFU OASL (11726364_x_at) / Fold change /veh OASL (11726364_x_at) / RFU SOX15 (11748057_x_at) / Fold change /veh SOX15 (11748057_x_at) / RFU CD79A (11719716_a_at) / Fold change /veh CD79A (11719716_a_at) / RFU HIST1H1D (11736915_at) / Fold change /veh HIST1H1D (11736915_at) / RFU CASKIN2 (11723855_a_at) / Fold change /veh CASKIN2 (11723855_a_at) / RFU LOC730098 (11760151_x_at) / Fold change /veh LOC730098 (11760151_x_at) / RFU OR4N2 (11742367_at) / Fold change /veh OR4N2 (11742367_at) / RFU PRRT2 (11749266_a_at) / Fold change /veh PRRT2 (11749266_a_at) / RFU SNX32 (11753110_a_at) / Fold change /veh SNX32 (11753110_a_at) / RFU CDHR5 (11726645_a_at) / Fold change /veh CDHR5 (11726645_a_at) / RFU RCAN1 (11760418_a_at) / Fold change /veh RCAN1 (11760418_a_at) / RFU FAM167A (11723789_a_at) / Fold change /veh FAM167A (11723789_a_at) / RFU FAM26E (11764081_at) / Fold change /veh FAM26E (11764081_at) / RFU ISYNA1 (11749810_s_at) / Fold change /veh ISYNA1 (11749810_s_at) / RFU ACY1 (11761880_at) / Fold change /veh ACY1 (11761880_at) / RFU 11764098_at / Fold change /veh 11764098_at / RFU SAMD14 (11745864_x_at) / Fold change /veh SAMD14 (11745864_x_at) / RFU NPB (11741838_a_at) / Fold change /veh NPB (11741838_a_at) / RFU TMPRSS6 (11731388_a_at) / Fold change /veh TMPRSS6 (11731388_a_at) / RFU KRTAP10-2 (11738614_at) / Fold change /veh KRTAP10-2 (11738614_at) / RFU ARHGAP8 /// PRR5-ARHGAP8 (11727945_x_at) / Fold change /veh ARHGAP8 /// PRR5-ARHGAP8 (11727945_x_at) / RFU KRTAP5-7 /// NADSYN1 (11734609_at) / Fold change /veh KRTAP5-7 /// NADSYN1 (11734609_at) / RFU RASL12 (11751679_a_at) / Fold change /veh RASL12 (11751679_a_at) / RFU CDKN2B (11736163_a_at) / Fold change /veh CDKN2B (11736163_a_at) / RFU PRF1 (11729649_at) / Fold change /veh PRF1 (11729649_at) / RFU, ZNF638 /// ZNF638-IT1 / Fold change vs veh, ZNF638 /// ZNF638-IT1 / RFU, PANK3 / Fold change vs veh, PANK3 / RFU, SH3YL1 / Fold change vs veh, SH3YL1 / RFU, ZEB2 / Fold change vs veh, ZEB2 / RFU, NRIP1 / Fold change vs veh, NRIP1 / RFU, PTTG1IP / Fold change vs veh, PTTG1IP / RFU, CAPN2 / Fold change vs veh, CAPN2 / RFU, MED14 / Fold change vs veh, MED14 / RFU, SNORA58 / Fold change vs veh, SNORA58 / RFU, C1orf63 / Fold change vs veh, C1orf63 / RFU, LRRFIP1 / Fold change vs veh, LRRFIP1 / RFU, NDUFAF7 / Fold change vs veh, NDUFAF7 / RFU, SLC12A2 / Fold change vs veh, SLC12A2 / RFU, IBTK / Fold change vs veh, IBTK / RFU, ESF1 / Fold change vs veh, ESF1 / Fold change vs veh, TMEM50B / RFU, TAOK1 / Fold change vs veh, TAOK1 / RFU, ACBD3 / Fold change vs veh, ACBD3 / RFU, TMA16 / Fold change vs veh, TMA16 / RFU, RWDD3 / Fold change vs veh, RWDD3 / RFU, BCAT1 / Fold change vs veh, BCAT1 / RFU, EDEM3 / Fold change vs veh, EDEM3 / RFU, TMEM33 / Fold change vs veh, TMEM33 / RFU, WDR75 / Fold change vs veh, WDR75 / RFU, AHCTF1 / Fold change vs veh, AHCTF1 / RFU, TFRC / Fold change vs veh, TFRC / RFU, ZDHHC17 / Fold change vs veh, ZDHHC17 / RFU, NOM1 / Fold change vs veh, NOM1 / RFU, ARL8B / Fold change vs veh, ARL8B / RFU, ZBTB11 / Fold change vs veh, ZBTB11 / RFU, TAMM41 / Fold change vs veh, TAMM41 / RFU, KIAA1704 /// LOC100996395 / Fold change vs veh, KIAA1704 /// LOC100996395 / RFU, ING1 / Fold change vs veh, ING1 / RFU, TRMT61B / Fold change vs veh, TRMT61B / RFU, FUBP3 / Fold change vs veh, FUBP3 / RFU, TP53 / Fold change vs veh, TP53 / RFU, TNKS2 / Fold change vs veh, TNKS2 / RFU, ZFP14 / Fold change vs veh, ZFP14 / RFU, ACTR2 / Fold change vs veh, ACTR2 / RFU, PPP3R1 / Fold change vs veh, PPP3R1 / RFU, PIK3R1 / Fold change vs veh, PIK3R1 / RFU, HNRNPA1 / Fold change vs veh, HNRNPA1 / RFU, RNF170 / Fold change vs veh, RNF170 / RFU, ZNF28 / Fold change vs veh, ZNF28 / RFU, RNGTT / Fold change vs veh, RNGTT / RFU, OGT / Fold change vs veh, OGT / RFU, BRD1 / Fold change vs veh, BRD1 / RFU, MARS / Fold change vs veh, MARS / RFU, ZNF655 / Fold change vs veh, ZNF655 / RFU, FAHD1 / Fold change vs veh, FAHD1 / RFU, BDP1 / Fold change vs veh, BDP1 / RFU, LRRCC1 / Fold change vs veh, LRRCC1 / RFU, ARID1A / Fold change vs veh, ARID1A / RFU, ZNF146 / Fold change vs veh, ZNF146 / RFU, ZNF330 / Fold change vs veh, ZNF330 / RFU, GPN3 / Fold change vs veh, GPN3 / RFU, C9orf123 / Fold change vs veh, C9orf123 / RFU, N4BP2L2 / Fold change vs veh, N4BP2L2 / RFU, ARFIP1 / Fold change vs veh, ARFIP1 / RFU, FAM179B / Fold change vs veh, FAM179B / RFU, BCL10 / Fold change vs veh, BCL10 / RFU, UHRF1BP1L / Fold change vs veh, UHRF1BP1L / RFU, BET1 / Fold change vs veh, BET1 / RFU, CNOT2 / Fold change vs veh, CNOT2 / RFU, ZNF268 / Fold change vs veh, ZNF268 / Fold change vs veh, ZNF507 / RFU, DGCR2 / Fold change vs veh, DGCR2 / RFU, WDSUB1 / Fold change vs veh, WDSUB1 / Fold change vs veh, HSP90B1 /// MIR3652 / RFU, ADSS / Fold change vs veh, ADSS / RFU, GK / Fold change vs veh, GK / RFU, ZNF148 / Fold change vs veh, ZNF148 / RFU, TAF9 / Fold change vs veh, TAF9 / RFU, SLC1A5 / Fold change vs veh, SLC1A5 / RFU, SLMO2 / Fold change vs veh, SLMO2 / RFU, ABCC4 / Fold change vs veh, ABCC4 / RFU, LOC101060439 /// RAP1B / Fold change vs veh, LOC101060439 /// RAP1B / RFU, RFX7 / Fold change vs veh, RFX7 / RFU, GTPBP10 / Fold change vs veh, GTPBP10 / RFU, CNEP1R1 / Fold change vs veh, CNEP1R1 / RFU, BIVM-ERCC5 /// ERCC5 / Fold change vs veh, BIVM-ERCC5 /// ERCC5 / RFU, ILF3 / Fold change vs veh, ILF3 / RFU 11762660_at / Fold change /veh 11762660_at / RFU VCAN (11757783_s_at) / Fold change /veh VCAN (11757783_s_at) / RFU DDX43 (11728927_at) / Fold change /veh DDX43 (11728927_at) / RFU KRT8 (11758188_x_at) / Fold change /veh KRT8 (11758188_x_at) / RFU NKD1 (11759106_at) / Fold change /veh NKD1 (11759106_at) / RFU SRD5A1 (11742802_a_at) / Fold change /veh SRD5A1 (11742802_a_at) / RFU TPSAB1 /// TPSB2 (11721975_s_at) / Fold change /veh TPSAB1 /// TPSB2 (11721975_s_at) / RFU GSTM3 (11746129_a_at) / Fold change /veh GSTM3 (11746129_a_at) / RFU IL23R (11737362_x_at) / Fold change /veh IL23R (11737362_x_at) / RFU TMEM51 (11727254_a_at) / Fold change /veh TMEM51 (11727254_a_at) / RFU PIWIL2 (11732686_x_at) / Fold change /veh PIWIL2 (11732686_x_at) / RFU ORM1 (11744905_x_at) / Fold change /veh ORM1 (11744905_x_at) / RFU CCDC152 (11743942_at) / Fold change /veh CCDC152 (11743942_at) / RFU ECM1 (11717891_a_at) / Fold change /veh ECM1 (11717891_a_at) / RFU IL23R (11748794_a_at) / Fold change /veh IL23R (11748794_a_at) / RFU TNFAIP8L3 (11732012_x_at) / Fold change /veh TNFAIP8L3 (11732012_x_at) / RFU MBOAT4 (11741988_at) / Fold change /veh MBOAT4 (11741988_at) / RFU 11764193_at / Fold change /veh 11764193_at / RFU TMEM53 (11763286_at) / Fold change /veh TMEM53 (11763286_at) / RFU MAGEB2 (11727129_at) / Fold change /veh MAGEB2 (11727129_at) / RFU TMEM200A (11744735_a_at) / Fold change /veh TMEM200A (11744735_a_at) / RFU CCDC152 (11751479_a_at) / Fold change /veh CCDC152 (11751479_a_at) / RFU FAM211A (11726209_a_at) / Fold change /veh FAM211A (11726209_a_at) / RFU RGS16 (11746705_a_at) / Fold change /veh RGS16 (11746705_a_at) / RFU VCAN (11755009_s_at) / Fold change /veh VCAN (11755009_s_at) / RFU RHOB (11743442_s_at) / Fold change /veh RHOB (11743442_s_at) / RFU RGS16 (11720943_a_at) / Fold change /veh RGS16 (11720943_a_at) / RFU RGS16 (11720944_at) / Fold change /veh RGS16 (11720944_at) / RFU, VPS4B / Fold change vs veh, VPS4B / RFU, CREB1 / Fold change vs veh, CREB1 / RFU, DNAJC13 / Fold change vs veh, DNAJC13 / RFU, GNAQ / Fold change vs veh, GNAQ / RFU, CDK5R1 / Fold change vs veh, CDK5R1 / RFU, ZRANB3 / Fold change vs veh, ZRANB3 / RFU, CUL4A / Fold change vs veh, CUL4A / RFU, CCNY / Fold change vs veh, CCNY / RFU, UFL1 / Fold change vs veh, UFL1 / RFU, COG3 / Fold change vs veh, COG3 / RFU, DIAPH2 / Fold change vs veh, DIAPH2 / RFU, SKA2 / Fold change vs veh, SKA2 / RFU, AFF3 / Fold change vs veh, AFF3 / RFU, LMF1 / Fold change vs veh, LMF1 / RFU, IPO11 / Fold change vs veh, IPO11 / RFU, DFFB / Fold change vs veh, DFFB / RFU, FOXP1 / Fold change vs veh, FOXP1 / RFU, CARD8 / Fold change vs veh, CARD8 / RFU, STRN3 / Fold change vs veh, STRN3 / RFU, ADK / Fold change vs veh, ADK / RFU, RASSF2 / Fold change vs veh, RASSF2 / RFU, WIPF1 / Fold change vs veh, WIPF1 / RFU, LARP1B / Fold change vs veh, LARP1B / RFU, RASA1 / Fold change vs veh, RASA1 / RFU, RB1 / Fold change vs veh, RB1 / RFU, PPFIA1 / Fold change vs veh, PPFIA1 / RFU, MAT2A / Fold change vs veh, MAT2A / RFU, CCT5 / Fold change vs veh, CCT5 / RFU, WDR92 / Fold change vs veh, WDR92 / RFU, CUX1 / Fold change vs veh, CUX1 / RFU, TTC7A / Fold change vs veh, TTC7A / RFU, TMEM135 / Fold change vs veh, TMEM135 / RFU, DEPTOR / Fold change vs veh, DEPTOR / RFU, CPM / Fold change vs veh, CPM / RFU, DNAJB6 / Fold change vs veh, DNAJB6 / RFU, CACNA2D3 / Fold change vs veh, CACNA2D3 / RFU, DTX4 / Fold change vs veh, DTX4 / RFU, TFCP2 / Fold change vs veh, TFCP2 / RFU, GMCL1 /// GMCL1P1 / Fold change vs veh, GMCL1 /// GMCL1P1 / RFU, AEBP2 / Fold change vs veh, AEBP2 / RFU, SNHG1 /// SNORD22 /// SNORD25 /// SNORD26 /// SNORD27 /// SNORD28 /// SNORD29 /// SNORD31 / Fold change vs veh, SNHG1 /// SNORD22 /// SNORD25 /// SNORD26 /// SNORD27 /// SNORD28 /// SNORD29 /// SNORD31 / Fold change (Aza/veh), C12orf56 (ProbeSet 11735607_a_at) / Fold change (ACY-1035/veh), C12orf56 (ProbeSet 11735607_a_at) / Fold change (Aza/veh), FGFR1OP (ProbeSet 11751329_s_at) / Fold change (ACY-1035/veh), FGFR1OP (ProbeSet 11751329_s_at) / Fold change (Aza/veh), VPS36 (ProbeSet 11739960_a_at) / Fold change (ACY-1035/veh), VPS36 (ProbeSet 11739960_a_at) / RFU SYPL1 (11715823_x_at) / Fold change /veh SYPL1 (11715823_x_at) / RFU IGFBP7 (11715501_s_at) / Fold change /veh IGFBP7 (11715501_s_at) / RFU REEP3 (11722064_at) / Fold change /veh REEP3 (11722064_at) / RFU IGLL1 (11728026_x_at) / Fold change /veh IGLL1 (11728026_x_at): dose or concentration left out as unconfirmed
# Settings: MV-4-11 cells, 48 hours
compound,measurement,value
Nc1ncn([C@@H]2O[C@H](CO)[C@@H](O)[C@H]2O)c(=O)n1 [azacitidine],Fold change /veh CYB561 (11721691_x_at),1.09
